Among the data in BindingDB's records for doi:10.1021/jm990281p (Parke-Davis Pharmaceutical Research, 2000) are IC50 and Ki values, retold here.

For test [1], the target named is T1, Dimer of Gag-Pol polyprotein [489-587] (Human immunodeficiency virus 1, UniProt P12497).
T1 construct: 489-587
Description: Protease Inhibition Assay. How it is done: (§1) Sensitivity of HIV-1 protease activity to protease inhibitors was determined by a peptide substrate cleavage assay. Protease products were analyzed on a reverse-phase high-pressure liquid chromatograph.

In test [2] the target is T2, Gag-Pol polyprotein [489-587] (Human immunodeficiency virus 1, UniProt P04585).
T2 construct: 489-587
As to the kind of experiment: Protease Inhibition Assay. On the procedure:
as §1

Test [3] deals with T2, Gag-Pol polyprotein [489-587].

Broadly, the IC50 is the concentration that inhibits the measured activity by half. Low values mean inhibition by little substance, high ones a need for much substance. Usually Ki stands for the equilibrium dissociation constant of an inhibitor or competing ligand from its target. Read a high Ki as lower affinity. With `Cc1cc(SC2C(=O)CC(CCc3ccc(O)cc3)(C(C)C)OC2=O)c(C(C)(C)C)cc1N` (stereo not given), the IC50 came to 2.7 nM in test [1] (pH 6.2, 37 °C) and 2.7 nM in test [2]. In addition, the Ki in test [1] (pH 6.2, 37 °C) is 0.67 nM; in test [3], 0.67 nM.
Consider `Cc1cc(SC2C(=O)CC(CCc3ccc(O)cc3)(C(C)C)OC2=O)c(C(C)(C)C)cc1NS(=O)(=O)c1cccc(C#N)c1` (stereo not given), for which the Ki was determined as 0.21 nM in test [1] (pH 6.2, 37 °C) and 0.21 nM in test [3].
For `Cc1cc(SC2C(=O)CC(CCc3ccccc3)(C(C)C)OC2=O)c(C(C)(C)C)cc1NS(C)(=O)=O` (stereo not given), the Ki came out at 0.83 nM in test [1] (pH 6.2, 37 °C) and 0.83 nM in test [3].
The compound `Cc1cc(SC2C(=O)CC(CCc3ccccc3)(C(C)C)OC2=O)c(C(C)(C)C)cc1O` (stereo not given) gave a Ki in test [3] of 1.1 nM.
Turning to `Cc1cc(SC2C(=O)CC(CCc3ccccc3)(C(C)C)OC2=O)c(C(C)(C)C)cc1OS(=O)(=O)c1ccc(C#N)cc1` (stereo not given), the Ki in test [1] and in test [3] was 0.7 nM each time.
On to `Cc1cc(SC2C(=O)C[C@@](CCc3ccc(O)cc3)(C(C)C)OC2=O)c(C(C)(C)C)cc1OS(C)(=O)=O` (stereo not given in full), for which the Ki in test [1] and in test [3] was 0.03 nM each time. Further, inhibition in test [2] was half-maximal at 2.2 nM (IC50).
Turning to `Cc1cc(SC2C(=O)C[C@@](CCc3ccc(O)cc3)(C(C)C)OC2=O)c(C(C)(C)C)cc1N` (stereo partly drawn) [(6S)-3-[(4-amino-2-tert-butyl-5-methylphenyl)sulfanyl]-4-hydroxy-6-[2-(4-hydroxyphenyl)ethyl]-6-(propan-2-yl)-5,6-dihydro-2H-pyran-2-one], the Ki in test [1] turned out to be 0.07 nM; in test [3] it was 13 nM.
`Cc1cc(SC2C(=O)CC(CCc3ccccc3)(C(C)C)OC2=O)c(C(C)(C)C)cc1NS(=O)(=O)c1cccc(C#N)c1` (stereo not given) [N-(5-tert-butyl-4-{[4-hydroxy-2-oxo-6-(2-phenylethyl)-6-(propan-2-yl)-5,6-dihydro-2H-pyran-3-yl]sulfanyl}-2-methylphenyl)-3-cyanobenzene-1-sulfonamide]: the Ki in test [1] (pH 6.2, 37 °C) stood at 1.4 nM; in test [3] it was 1.4 nM.
For the compound `Cc1cc(SC2C(=O)CC(CCc3ccccc3)(C(C)C)OC2=O)c(C(C)(C)C)cc1NS(=O)(=O)c1ccc(C(F)(F)F)cc1` (stereo not given) [N-(5-tert-butyl-4-{[4-hydroxy-2-oxo-6-(2-phenylethyl)-6-(propan-2-yl)-5,6-dihydro-2H-pyran-3-yl]sulfanyl}-2-methylphenyl)-4-(trifluoromethyl)benzene-1-sulfonamide], the Ki in test [1] (pH 6.2, 37 °C) worked out at 27 nM; in test [3], 27 nM.
Turning to `Cc1cc(SC2C(=O)C[C@@](CCc3ccccc3)(C(C)C)OC2=O)c(C(C)(C)C)cc1NS(=O)(=O)c1ccc(C#N)cc1` (stereo partly drawn) [N-(5-tert-butyl-4-{[(6S)-4-hydroxy-2-oxo-6-(2-phenylethyl)-6-(propan-2-yl)-5,6-dihydro-2H-pyran-3-yl]sulfanyl}-2-methylphenyl)-4-cyanobenzene-1-sulfonamide], the Ki in test [1] and in test [3] was 0.2 nM throughout. The same compound showed an IC50 in test [2] of 9.1 nM.
For `Cc1cc(SC2C(=O)C[C@@](CCc3ccccc3)(C(C)C)OC2=O)c(C(C)(C)C)cc1NS(=O)(=O)c1ccc(C(F)(F)F)cn1` (stereo partly drawn) [N-(5-tert-butyl-4-{[(6S)-4-hydroxy-2-oxo-6-(2-phenylethyl)-6-(propan-2-yl)-5,6-dihydro-2H-pyran-3-yl]sulfanyl}-2-methylphenyl)-5-(trifluoromethyl)pyridine-2-sulfonamide], the inhibition constant Ki turned out to be 0.31 nM in test [1] and 6.4 nM in test [3].
Take `Cc1cc(SC2C(=O)C[C@@](CCc3ccc(O)cc3)(C(C)C)OC2=O)c(C(C)(C)C)cc1NS(=O)(=O)c1ccc(C(F)(F)F)cn1` (stereo partly drawn) [N-(5-tert-butyl-4-{[(6S)-4-hydroxy-6-[2-(4-hydroxyphenyl)ethyl]-2-oxo-6-(propan-2-yl)-5,6-dihydro-2H-pyran-3-yl]sulfanyl}-2-methylphenyl)-5-(trifluoromethyl)pyridine-2-sulfonamide]: the Ki in test [1] and in test [3] was 0.39 nM each time.
For `Cc1cc(SC2C(=O)CC(CCc3ccc(O)cc3)(C(C)C)OC2=O)c(C(C)(C)C)cc1NS(=O)(=O)c1ccc(C(F)(F)F)cc1` (stereo not given) [N-[5-tert-butyl-4-({4-hydroxy-6-[2-(4-hydroxyphenyl)ethyl]-2-oxo-6-(propan-2-yl)-5,6-dihydro-2H-pyran-3-yl}sulfanyl)-2-methylphenyl]-4-(trifluoromethyl)benzene-1-sulfonamide], the IC50 in test [1] (pH 6.2, 37 °C) came out at 18.3 nM; in test [2], 18.3 nM.
As to `Cc1cc(SC2C(=O)CC(CCc3ccc(O)cc3)(C(C)C)OC2=O)c(C(C)(C)C)cc1NS(=O)(=O)c1ccc(C#N)cc1` (stereo not given) [N-[5-tert-butyl-4-({4-hydroxy-6-[2-(4-hydroxyphenyl)ethyl]-2-oxo-6-(propan-2-yl)-5,6-dihydro-2H-pyran-3-yl}sulfanyl)-2-methylphenyl]-4-cyanobenzene-1-sulfonamide], the IC50 in test [1] (pH 6.2, 37 °C) came out at 2.2 nM; in test [2] it was 2.2 nM. Also, the Ki was found to be 0.41 nM in test [1] (pH 6.2, 37 °C) and 0.41 nM in test [3].
Regarding `Cc1cc(SC2C(=O)CC(CCc3ccc(O)cc3)(C(C)C)OC2=O)c(C(C)(C)C)cc1NS(=O)(=O)c1ccc(F)cc1` (stereo not given) [N-[5-tert-butyl-4-({4-hydroxy-6-[2-(4-hydroxyphenyl)ethyl]-2-oxo-6-(propan-2-yl)-5,6-dihydro-2H-pyran-3-yl}sulfanyl)-2-methylphenyl]-4-fluorobenzene-1-sulfonamide], the IC50 in test [1] (pH 6.2, 37 °C) came to 4.1 nM; in test [2], 4.1 nM.
As for `Cc1cc(SC2C(=O)CC(CCc3ccc(O)cc3)(C(C)C)OC2=O)c(C(C)(C)C)cc1NS(=O)(=O)c1ccccc1` (stereo not given) [N-[5-tert-butyl-4-({4-hydroxy-6-[2-(4-hydroxyphenyl)ethyl]-2-oxo-6-(propan-2-yl)-5,6-dihydro-2H-pyran-3-yl}sulfanyl)-2-methylphenyl]benzenesulfonamide], the IC50 in test [1] (pH 6.2, 37 °C) worked out at 1.8 nM; in test [2], 1.8 nM. For the same compound, the Ki in test [1] (pH 6.2, 37 °C) came to 0.53 nM; in test [3], 0.53 nM.
On to `Cc1cc(SC2C(=O)CC(CCc3ccc(O)cc3)(C(C)C)OC2=O)c(C(C)(C)C)cc1NS(=O)(=O)c1ccccn1` (stereo not given) [N-[5-tert-butyl-4-({4-hydroxy-6-[2-(4-hydroxyphenyl)ethyl]-2-oxo-6-(propan-2-yl)-5,6-dihydro-2H-pyran-3-yl}sulfanyl)-2-methylphenyl]pyridine-2-sulfonamide], for which the IC50 in test [1] (pH 6.2, 37 °C) stood at 2.6 nM; in test [2], 2.6 nM.
As for `Cc1cc(SC2C(=O)CC(CCc3ccc(O)cc3)(C(C)C)OC2=O)c(C(C)(C)C)cc1NS(=O)(=O)c1cccs1` (stereo not given) [N-[5-tert-butyl-4-({4-hydroxy-6-[2-(4-hydroxyphenyl)ethyl]-2-oxo-6-(propan-2-yl)-5,6-dihydro-2H-pyran-3-yl}sulfanyl)-2-methylphenyl]thiophene-2-sulfonamide], the IC50 in test [1] (pH 6.2, 37 °C) came to 8.7 nM; in test [2], 8.7 nM.
For the compound `Cc1cc(SC2C(=O)CC(C)(CCc3ccc(O)cc3)OC2=O)c(C(C)(C)C)cc1NS(=O)(=O)c1ccc(C(F)(F)F)cc1` (stereo not given) [N-[5-tert-butyl-4-({4-hydroxy-6-[2-(4-hydroxyphenyl)ethyl]-6-methyl-2-oxo-5,6-dihydro-2H-pyran-3-yl}sulfanyl)-2-methylphenyl]-4-(trifluoromethyl)benzene-1-sulfonamide], the IC50 in test [1] (pH 6.2, 37 °C) was determined as 12.3 nM; in test [2], 12.3 nM.
For `Cc1cc(SC2C(=O)CC(C)(CCc3ccc(O)cc3)OC2=O)c(C(C)(C)C)cc1NS(=O)(=O)c1ccc(Cl)cc1` (stereo not given) [N-[5-tert-butyl-4-({4-hydroxy-6-[2-(4-hydroxyphenyl)ethyl]-6-methyl-2-oxo-5,6-dihydro-2H-pyran-3-yl}sulfanyl)-2-methylphenyl]-4-chlorobenzene-1-sulfonamide], the IC50 in test [1] (pH 6.2, 37 °C) was found to be 3.5 nM; in test [2] it was 3.5 nM.
In the case of `Cc1cc(SC2C(=O)CC(C)(CCc3ccc(O)cc3)OC2=O)c(C(C)(C)C)cc1NS(=O)(=O)c1ccc(F)cc1` (stereo not given) [N-[5-tert-butyl-4-({4-hydroxy-6-[2-(4-hydroxyphenyl)ethyl]-6-methyl-2-oxo-5,6-dihydro-2H-pyran-3-yl}sulfanyl)-2-methylphenyl]-4-fluorobenzene-1-sulfonamide], the IC50 in test [1] (pH 6.2, 37 °C) came out at 3.7 nM; in test [2], 3.7 nM.
On to `Cc1cc(SC2C(=O)CC(C)(CCc3ccc(O)cc3)OC2=O)c(C(C)(C)C)cc1NS(=O)(=O)c1ccccc1` (stereo not given) [N-[5-tert-butyl-4-({4-hydroxy-6-[2-(4-hydroxyphenyl)ethyl]-6-methyl-2-oxo-5,6-dihydro-2H-pyran-3-yl}sulfanyl)-2-methylphenyl]benzenesulfonamide], for which the IC50 in test [1] (pH 6.2, 37 °C) was 1.5 nM; in test [2], 1.5 nM.
Take `Cc1cc(SC2C(=O)CC(CCc3ccc(O)cc3)(C3CCCC3)OC2=O)c(C(C)(C)C)cc1NS(=O)(=O)c1ccccc1` (stereo not given) [N-[5-tert-butyl-4-({6-cyclopentyl-4-hydroxy-6-[2-(4-hydroxyphenyl)ethyl]-2-oxo-5,6-dihydro-2H-pyran-3-yl}sulfanyl)-2-methylphenyl]benzenesulfonamide]: the IC50 in test [1] (pH 6.2, 37 °C) is 8.6 nM; in test [2] it was 8.6 nM.
On to `Cc1cc(SC2C(=O)CC(CCc3ccc(O)cc3)(C3CC3)OC2=O)c(C(C)(C)C)cc1NS(=O)(=O)c1ccccc1` (stereo not given) [N-[5-tert-butyl-4-({6-cyclopropyl-4-hydroxy-6-[2-(4-hydroxyphenyl)ethyl]-2-oxo-5,6-dihydro-2H-pyran-3-yl}sulfanyl)-2-methylphenyl]benzenesulfonamide], for which the IC50 in test [1] (pH 6.2, 37 °C) is 3.6 nM; in test [2], 3.6 nM.
